Measurements taken from article PMC5618194, “Orally Delivered Scorpion Antimicrobial Peptides Exhibit Activity against Pea Aphid (Acyrthosiphon pisum) and Its Bacterial Symbionts” (Toxins, 2017).
Values after ≈ are worked out from the molar mass of the structure shown. Read-outs that look alike come from different tables or passages of the source. No end group written: not given here.

Legend:
S. symbiotica [1] = assay: qPCR relative quantification of symbiont in treated aphids; type: in vivo, Serratia symbiotica in Acyrthosiphon pisum; settings: 50 µg/mL
Description: (§1) The density of the B. aphidicola and S. symbiotica populations in vivo was determined by qPCR. Genomic DNA was extracted from pools of five aphids, as previously described. Three biological replicates were prepared per treatment. Amplifications were carried out using a StepOnePlus™ Real-Time PCR System (Applied Biosystems, Waltham, MA, USA). The reaction volume was 10 μL, comprising 2 μL of template DNA (25 ng/μL), 10 μM of each specific primer and 5 μL of SYBR Green PCR Master Mix (Applied Biosystems). Each reaction was heated to 95 °C for 10 min, followed by 40 cycles of 95 °C for 15 s and 60 °C for 60 s. Melting curve analysis was performed by increasing the temperature from 60 °C to 95 °C for 15 s, cooling to 60 °C for 60 s and heating to 95 °C for 15 s. […] Relative abundance values for each symbiont were calculated by comparing the threshold cycle (Ct) of each target gene to that of the aphid ribosomal protein L32 gene and efficiencies were calculated using LinReg PCR software.
(§2) All data were analysed using SPSS v17.0 software (SPSS Inc., Chicago, IL, USA) and statistical significance was defined as p < 0.05. […] The total number of offspring, time to reproduction, and relative numbers of bacterial symbionts were analysed using the Wilcoxon ranked sum test for non-parametric data and a paired t-test for parametric data.

A. pisum [2] = assay: Aphid reproduction after AMP feeding (time to reproduction, number of offspring); type: in vivo, Acyrthosiphon pisum; settings: 50 µg/mL for three days; surviving aphids followed two weeks
Description: The effect of each AMP on A. pisum reproduction was determined by counting the number of offspring and recording the delay before reproduction in surviving aphids for two weeks after treatment (Figure 2).
A. pisum nymphs (48 h old) were fed for three days on an artificial AP3 diet in modified chambers. The AP3 diet was mixed with the corresponding AMP or control treatment. Ten nymphs were placed in each chamber and five replicates were included per treatment. AMPs were tested at three different concentrations: 50, 250, and 500 µg/mL. Untreated aphids were fed on the control AP3 diet. Positive control treatments comprised aphids fed on the AP3 diet supplemented with the insecticide imidacloprid (5 µg/mL) or the antibiotic rifampicin (50 µg/mL) (Sigma-Aldrich, Taufkirchen, Germany). Imidacloprid is strongly hydrophobic, and was therefore prepared first as a highly concentrated stock (1000 µg/mL) in acetone and working solutions were diluted in the AP3 diet. […] Mortality was scored after 24, 48, and 72 h of feeding. […]
as §2

B. aphidicola [3] = assay: qPCR relative quantification of symbiont in treated aphids; type: in vivo, Buchnera aphidicola in Acyrthosiphon pisum; settings: 50 µg/mL
Description: as §1, §2

S. symbiotica [4] = assay: FISH localization of symbiont in treated aphid nymphs; type: in vivo, Serratia symbiotica in Acyrthosiphon pisum
Description: (§3) FISH was carried out as previously described, with slight modifications. Treated A. pisum nymphs were fixed for three days in Carnoy’s solution (6:3:1 […]:glacial acetic acid) and then bleached in 6% H2O2 in 96% ethanol for 1 week. After bleaching, samples were washed in 100% ethanol and then hybridized overnight in hybridization buffer (20 mM Tris-HCl pH 8.0, 0.9 M NaCl, 0.01% sodium dodecylsulfate, 30% formamide) containing 100 nM of each fluorescent probe and 500 nM DAPI. After hybridization, samples were rinsed three times with phosphate buffered saline containing 0.3% Triton X-100 and viewed under a Leica TCS SP8 confocal microscope (Leica Microsystems, Wetzlar, Germany). We analysed a minimum of 20 samples from each treatment. The specificity of detection was confirmed using controls with no probe and specimens were pre-treated with RNase.

B. aphidicola [5] = assay: as above; type: in vivo, Buchnera aphidicola in Acyrthosiphon pisum; settings: highest concentration of each AMP, control treatments
Description: as §3

A. pisum [6] = type: in vivo, Acyrthosiphon pisum; settings: for % Survival: after three days of feeding, 48 h old nymphs, ten per chamber, five replicates, control AP3 diet survival = 90%; for Kaplan-Meier analysis: Mean, Estimate (survival time): three days of feeding, control 2.880, estimation limited to the largest survival time if censored
Description: A. pisum nymphs (48 h old) were fed for three days on an artificial AP3 diet in modified chambers. The AP3 diet was mixed with the corresponding AMP or control treatment. Ten nymphs were placed in each chamber and five replicates were included per treatment. AMPs were tested at three different concentrations: 50, 250, and 500 µg/mL. Untreated aphids were fed on the control AP3 diet. Positive control treatments comprised aphids fed on the AP3 diet supplemented with the insecticide imidacloprid (5 µg/mL) or the antibiotic rifampicin (50 µg/mL) (Sigma-Aldrich, Taufkirchen, Germany). Imidacloprid is strongly hydrophobic, and was therefore prepared first as a highly concentrated stock (1000 µg/mL) in acetone and working solutions were diluted in the AP3 diet. The corresponding control (AP3 + acetone) was tested on the aphids, and survival was not affected when compared to AP3 diet alone or AP3 diet diluted with water (data not shown). Mortality was scored after 24, 48, and 72 h of feeding. Aphids that survived the three-day treatment were transferred to agar plates containing bean plant leaves and reared for another two weeks in order to determine the impact of the diets on survival and reproduction.
All data were analysed using SPSS v17.0 software (SPSS Inc., Chicago, IL, USA) and statistical significance was defined as p < 0.05. For mortality assessment, we used non-parametric survival analysis (Kaplan-Meier) and multiple pairwise comparisons among different groups were carried out using log-rank tests to assess efficiency. The total number of offspring, time to reproduction, and relative numbers of bacterial symbionts were analysed using the Wilcoxon ranked sum test for non-parametric data and a paired t-test for parametric data.

S. symbiotica CWBI-2.3 = assay: microbe, parasite or virus in culture; type: cell-based, Serratia symbiotica; settings: broth microdilution (CLSI), 96-well polypropylene plates, 535 medium (Tripticase soy broth), 5 × 10^5 CFU/mL, 18 h, absorbance at 600 nm, two-fold dilutions 500 to 4 µg/mL, lowest concentration causing complete growth inhibition
Description: S. symbiotica strain CWBI-2.3, the only aphid symbiotic bacterium that can be cultivated in the laboratory, was purchased from the Leibniz Institute DSMZ (Braunschweig, Germany) and cultivated as recommended by the supplier. MICs were determined according to the CLSI guidelines using a broth microdilution assay in 96-well polypropylene microtiter plates. The bacteria were cultivated overnight at 28 °C using 535 medium (Tripticase soy broth) and diluted to 5 × 10^5 CFU/mL in broth. The AMPs were dissolved in water to a concentration of 4 mg/mL and a series of two-fold dilutions was prepared in 535 broths, ranging from 500 to 4 µg/mL. S. symbiotica CWBI-2.3 in an unmodified medium was used as a positive control, and blanks were prepared with medium only or with medium and water (the latter to exclude any possible negative effect of water on the bacteria). The bacteria were incubated for 18 h and the absorbance at 600 nm was recorded every 20 min. The MICs were defined as the lowest concentrations of AMP causing complete bacterial growth inhibition.

[7] = system: green peach aphid Myzus persicae (Sulzer); set-up: method as in doi:10.1111/j.1439-0418.2006.01117.x; settings: cited from earlier work
Escherichia coli = settings: cited from earlier work
[8] = after three days of treatment, compared to control AP3 diet, pools of five aphids, three biological replicates
[9] = two weeks after treatment, data not shown

## CO[C@H]1/C=C/O[C@@]2(C)Oc3c(C)c(O)c4c(O)c(c(/C=N/N5CCN(C)CC5)c(O)c4c3C2=O)NC(=O)/C(C)=C\C=C\[C@H](C)[C@H](O)[C@@H](C)[C@@H](O)[C@@H](C)[C@H](OC(C)=O)[C@@H]1C [Rifampicin]
S. symbiotica [1]; [8]
  density of S. symbiotica (qPCR, relative abundance): significant reduction
S. symbiotica [1]; [9]
  density of S. symbiotica (qPCR): significant reduction
A. pisum [2]
  number of offspring: hardly any offspring
B. aphidicola [3]; [8]
  density of B. aphidicola (qPCR, relative abundance): significant reduction
B. aphidicola [3]; [9]
  density of B. aphidicola (qPCR): significant reduction
S. symbiotica [4]; 48 h after exposure, highest concentration of each AMP, control treatments, minimum of 20 samples per treatment
  S. symbiotica FISH signal: reduced the S. symbiotica signal
B. aphidicola [5]; aphid nymphs, 24 and 48 h after exposure
  intensity of the B. aphidicola FISH signal: neither the AMPs nor rifampicin reduced the intensity of the signal
A. pisum [6]; 50 µg/mL for three days, survivors monitored for the following two weeks on bean leaves, data not shown
  survival during the two weeks after treatment: did not affect aphid survival
A. pisum [6]; 50 µg/mL in AP3 diet
  % Survival: 92.5%
A. pisum [6]; 50 µg/mL
  Kaplan-Meier analysis: Mean, Estimate (survival time): 2.925
S. symbiotica CWBI-2.3; Serratia symbiotica, CWBI2.3, read-out: MIC (In Vitro)
  MIC: 50 mg/L (≈ 60.8 µM)

## GNRPVYIPPPRPPHPRL-NH2 [Apidaecin]
S. symbiotica CWBI-2.3
  MIC (In Vitro): >500 mg/L

## GFWGKLWEGVKNAIKKK-NH2 [D11]
S. symbiotica CWBI-2.3
  MIC (In Vitro): >500 mg/L

## ILSAIWSGIKSLF-NH2 [UyCT3]
S. symbiotica CWBI-2.3
  MIC (In Vitro): 125 mg/L

## indolicidin: an AMP from bovine neutrophils (ILPWKWPWWPWRR; ends and bridges not checked; UniProt P33046 131-143, looked up)
[7]
  activity against Myzus persicae: showed activity
Escherichia coli
  activity against Escherichia coli: showed activity

## FPFLKLSLKIPKSAIKSAIKRL-NH2 [D10]
S. symbiotica CWBI-2.3
  MIC (In Vitro): >500 mg/L

## FLSTIWNGIKGLL-NH2 [Uy192]
S. symbiotica CWBI-2.3
  MIC (In Vitro): 500 mg/L

## RGFRKHFNKLVKKVKHTISETAHVAKDTAVIAGSGAAVVAAT-NH2 [Stomoxyn]
S. symbiotica CWBI-2.3
  MIC (In Vitro): >500 mg/L

## LWGKLWEGVKSLI-NH2 [D3]
S. symbiotica CWBI-2.3
  MIC (In Vitro): 250 mg/L

## GFWGKLWEGVKNAI-NH2 [UyCT1]
S. symbiotica CWBI-2.3
  MIC (In Vitro): 125 mg/L

## O=[N+]([O-])NC1=NCCN1Cc1ccc(Cl)nc1 [Imidacloprid]
S. symbiotica [4]; 24 and 48 h after exposure, control treatment
  localization of the S. symbiotica FISH signal: did not affect the localization of the bacterial symbionts
B. aphidicola [5]; 48 h after treatment
  localization of the B. aphidicola FISH signal: did not affect the localization of the bacterial symbionts
A. pisum [6]; 5 µg/mL in AP3 diet
  % Survival: 0%
A. pisum [6]; 5 µg/mL
  Kaplan-Meier analysis: Mean, Estimate (survival time): 1.960

## GFWGKLLEGVKKAI-NH2 [D5]
S. symbiotica CWBI-2.3
  MIC (In Vitro): 500 mg/L

## IWSAIWSGIKGLL-NH2 [UyCT5]
A. pisum [6]; in vivo, 48 h, 500 µg/mL
  nymphs killed after the first day: 10%
S. symbiotica CWBI-2.3
  MIC (In Vitro): 125 mg/L

## FFSALLSGIKSLF-NH2 [Um4]
S. symbiotica CWBI-2.3
  MIC (In Vitro): >500 mg/L

## ILSAIWSGIKGLL-NH2 [Uy17]
S. symbiotica CWBI-2.3
  MIC (In Vitro): 250 mg/L

## FPFLLSLIPSAISAIKRL-NH2 [Uy234]
S. symbiotica CWBI-2.3
  MIC (In Vitro): >500 mg/L
